Here are results for 16 compounds from ChEMBL document CHEMBL4808164, “Giffonins, Antioxidant Diarylheptanoids from Corylus avellana, and Their Ability to Prevent Oxidative Changes in Human Plasma Proteins” (J Nat Prod, 2021).

Calls of active or inactive are those of the source. The rule behind the calls is not given here.

Series [1] has as its system Plasma. The experiment in a line: Antioxidant activity in human plasma assessed as inhibition of H2O2-induced lipid peroxidation at 10 uM incubated for 30 mins by TBARS assay. The series is classed as functional, cell-free.
For series [2], the system named is Plasma. The experiment in a line: Antioxidant activity in human plasma protein assessed as reduction of H2O2/Fe2+-induced plasma protein carbonylation at 10 uM incubated for 30 mins. The series is classed as functional.
The test system of series [3] is Plasma. Nature of the series: Antioxidant activity in human plasma assessed as inhibition of H2O2/[…]-induced lipid peroxidation at 10 uM incubated for 30 mins by TBARS assay. The series is classed as functional, cell-free.
Series [4] relates to Plasma. The experiment in a line: Effect on autoxidation of thiol group in human plasma protein at 0.1 to 100 uM by Ellman reagent based spectrophotometry. As to conditions: dose 0.1-100 µM. The series is classed as ADME, cell-free.
Series [5] concerns Plasma. The experiment in a line: Effect on auto-carbonylation of human plasma protein at 0.1 to 100 uM. Conditions: dose 0.1-100 µM. The series is classed as ADME, cell-free.
The test system of series [6] is Plasma. Nature of the series: Antioxidant activity in human plasma protein assessed as reduction of H2O2-induced plasma protein carbonylation at 10 uM incubated for 30 mins. The series is classed as functional, cell-free.
Series [7] concerns Plasma. Nature of the series: Antioxidant activity in human plasma protein assessed as reduction of H2O2/Fe2+-induced oxidation of thiol group at 10 uM incubated for 30 mins by Ellman reagent based spectrophotometry. The series is classed as functional, cell-free. On the technique in general: DTNB colorimetry detects thiols as they appear.
In series [8] the test system is Plasma. Nature of the series: Antioxidant activity in human plasma protein assessed as reduction of H2O2-induced oxidation of thiol group at 10 uM incubated for 30 mins by Ellman reagent based spectrophotometry. The series is classed as functional, cell-free.

Turning to `O=C1CCc2ccc(O)c(c2)-c2cc(ccc2O)C[C@H](O)C[C@H]1O`, the inhibition in the series on Plasma [1] stood at 44.4%; in the series with Plasma [3] it was 34.1%. Besides, the outcome in the series with Plasma [2], in the series with Plasma [6], in the series with Plasma [7] and with Plasma [8] was Active. The Activity result in the series with Plasma [4] and with Plasma [5] was “Non-Toxic” each time.
On to `O=C1[C@@H](O)Cc2ccc(O)c(c2)-c2cc(ccc2O)C[C@@H](O)[C@H](O)[C@H]1O`, for which the inhibition stood at 3.8% with Plasma [1] and 23.9% in the series with Plasma [3].
For `O=C1CCc2ccc(O)c(c2)-c2cc(ccc2O)C[C@@H](O)[C@H](O)C1` the same measures were 3.9% and 11.2%.
Take `COc1c2cc(c(OC)c1O)Oc1ccc(cc1)CCCC[C@@H](O)/C=C\2`: the outcome with Plasma [2], in the series on Plasma [6], in the series on Plasma [7] and in the series with Plasma [8] was Active. The Activity entry in the series with Plasma [4] and with Plasma [5] was “Non-Toxic” each time.
With `COc1c2cc(c(OC)c1O)Oc1ccc(cc1)CCC(=O)CC/C=C\2`, the Activity result with Plasma [4] and with Plasma [5] was “Non-Toxic” in each case. Also, the result with Plasma [7] and in the series on Plasma [8] was Active.
For `Oc1ccc2cc1-c1cc(ccc1O)C[C@H](O)[C@H](O)C(O)[C@@H](O)[C@H](O)C2` (some centres undefined), the inhibition in the series with Plasma [1] was determined as 33.6%; in the series with Plasma [3], 10.4%.
In the case of `COc1c2cc(c(OC)c1O)Oc1ccc(cc1)CC[C@@H](O)/C=C/C=C\2`, the Activity with Plasma [2] (0.5 h) is on record as 65%; in the series with Plasma [4], “Non-Toxic”; with Plasma [5], “Non-Toxic”. The outcome in the series on Plasma [6], in the series with Plasma [7] and with Plasma [8] was Active.
For the compound `COc1cc(/C=C/C(=O)CC(=O)/C=C/c2ccc(O)c(OC)c2)ccc1O`, the inhibition was 20.6% in the series on Plasma [1] and 23.2% in the series with Plasma [3].
For `O=C1C[C@@H](O)Cc2ccc(O)c(c2)-c2cc(ccc2O)C[C@H](O)[C@H]1O` the same measures were 6.2% and 4.2%.
`COc1c2cc(c(OC)c1O)Oc1ccc(cc1)[C@@H](O)C[C@H](O)/C=C/C=C/2`: the values for the inhibition in the series on Plasma [1] and in the series on Plasma [3] were 24.2% and 25.5%, respectively. In addition, the Activity in the series with Plasma [2] (0.5 h) is 65%; in the series on Plasma [4], “Non-Toxic”; in the series with Plasma [5], “Non-Toxic”. Also, the result in the series on Plasma [6], with Plasma [7] and in the series with Plasma [8] was Active.
As to `Oc1ccc2cc1-c1cc(ccc1O)C[C@H](O)[C@@H](O)[C@@H](O)C[C@@H](O)C2`, the inhibition in the series on Plasma [1] was found to be 33.3%; in the series on Plasma [3], 14.4%.
For `O=C1CCc2ccc(O)c(c2)-c2cc(ccc2O)C[C@H](O[C@@H]2O[C@H](CO)[C@@H](O)[C@H](O)[C@H]2O)C[C@@H]1O` the same measures were 3.9% and 4.8%.
For `O=C1/C=C/CCc2ccc(O)c(c2)-c2cc(ccc2O)CC1`, the Activity entry with Plasma [4] and in the series with Plasma [5] was “Non-Toxic” throughout. In addition, the outcome in the series on Plasma [7] and in the series on Plasma [8] was Active.
Consider `O=C1CCc2ccc(O)c(c2)-c2cc(ccc2O)C[C@H](O)[C@@H](O)[C@@H]1O`, for which the result in the series on Plasma [2], in the series with Plasma [6], with Plasma [7] and in the series with Plasma [8] was Active. For the same compound, the Activity result with Plasma [4] and in the series with Plasma [5] was “Non-Toxic” throughout.
In the case of `COc1c2cc(c(OC)c1O)Oc1ccc(cc1)[C@@H](O)C[C@H](O)CC/C=C/2`, the inhibition stood at 2.7% with Plasma [1] and 4% in the series on Plasma [3].
With `COc1c(O)cc2cc1Oc1ccc(cc1)CC[C@@H](O)/C=C/C=C\2`, the outcome with Plasma [2], in the series with Plasma [6], in the series on Plasma [7] and in the series with Plasma [8] was Active. In addition, the Activity result in the series on Plasma [4] and in the series on Plasma [5] was “Non-Toxic” in each case.

The inhibition is the share of the control response that was lost under treatment.
